# Reference: patent US20260325533A1, “CDK INHIBITOR COMPOUNDS” (ALEKSIA THERAPEUTICS, INC., priority 2023, published 2026)
# Counter-ions that a name gives are not always drawn. Like-named read-outs stand apart in the source and are kept apart here.
# Legend:
# Type in all cases: biochemical
# [1] = molecular target: CDK2/CCNE1 (Homo sapiens, UniProt P24941); experiment: CDK2 homogeneous time-resolved fluorescence (HTRF) kinase assay
# Outline: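 TR-FRET read-out (665 nm, or 665/615 ratio) of Eu-antibody detection of phospho-4E-BP1 (Thr37/46) ULight peptide. Enzyme 3 nM, ATP 1 mM, peptide 50 nM, 1% DMSO; 60 min reaction at 23 °C after 20 min compound preincubation. IC50 from 11-point half-log titrations, top typically 10 μM.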
# [2] = molecular target: CDK1/CCNB1 (Homo sapiens, UniProt P06493); experiment: CDK1 homogeneous time-resolved fluorescence (HTRF) kinase assay
# Sequence of CDK1/CCNB1 (P06493 whole entry): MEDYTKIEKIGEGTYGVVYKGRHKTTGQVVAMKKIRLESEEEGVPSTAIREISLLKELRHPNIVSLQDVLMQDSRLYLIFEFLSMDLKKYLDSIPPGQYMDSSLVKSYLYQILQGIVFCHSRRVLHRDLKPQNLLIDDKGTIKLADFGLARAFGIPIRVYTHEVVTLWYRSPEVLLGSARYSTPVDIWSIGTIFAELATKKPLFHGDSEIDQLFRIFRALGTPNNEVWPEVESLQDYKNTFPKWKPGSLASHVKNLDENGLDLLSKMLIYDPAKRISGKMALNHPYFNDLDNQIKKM
# Sequence of CDK1/CCNB1 (P14635 whole entry partner): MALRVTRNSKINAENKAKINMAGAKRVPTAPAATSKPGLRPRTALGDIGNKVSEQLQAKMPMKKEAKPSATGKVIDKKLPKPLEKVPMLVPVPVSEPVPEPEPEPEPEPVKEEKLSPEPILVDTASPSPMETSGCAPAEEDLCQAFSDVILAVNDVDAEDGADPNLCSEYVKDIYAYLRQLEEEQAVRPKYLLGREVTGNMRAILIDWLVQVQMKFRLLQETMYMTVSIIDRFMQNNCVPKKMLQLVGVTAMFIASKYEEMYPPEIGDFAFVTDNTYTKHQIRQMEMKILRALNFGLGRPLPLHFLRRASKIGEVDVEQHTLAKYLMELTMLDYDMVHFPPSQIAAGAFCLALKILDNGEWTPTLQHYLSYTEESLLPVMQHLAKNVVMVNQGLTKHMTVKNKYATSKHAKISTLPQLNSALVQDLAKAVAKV
# Outline: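 Kinase activity is measured as Lance signal (665 nm, or 665/615 nm ratio) from europium-labelled anti-phospho-Thr37/46 antibody binding ULight-4E-BP1 peptide. Reactions contain 0.5 nM enzyme, 1 mM ATP, 1% DMSO and run 60 min at 23 °C before EDTA quench.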
# [3] = molecular target: CDK4/CCND3 (Homo sapiens, UniProt P11802); experiment: CDK4 homogeneous time-resolved fluorescence (HTRF) kinase assay
# Sequence of CDK4/CCND3 (P11802 whole entry): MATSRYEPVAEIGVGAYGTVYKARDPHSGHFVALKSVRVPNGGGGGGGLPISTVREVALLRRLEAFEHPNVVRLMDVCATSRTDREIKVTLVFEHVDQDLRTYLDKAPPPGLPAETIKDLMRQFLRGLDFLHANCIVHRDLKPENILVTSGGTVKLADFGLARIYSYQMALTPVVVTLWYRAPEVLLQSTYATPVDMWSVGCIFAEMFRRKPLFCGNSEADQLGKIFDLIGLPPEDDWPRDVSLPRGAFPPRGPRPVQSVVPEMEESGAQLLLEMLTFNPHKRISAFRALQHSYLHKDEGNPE
# Sequence of CDK4/CCND3 (P30281 whole entry partner): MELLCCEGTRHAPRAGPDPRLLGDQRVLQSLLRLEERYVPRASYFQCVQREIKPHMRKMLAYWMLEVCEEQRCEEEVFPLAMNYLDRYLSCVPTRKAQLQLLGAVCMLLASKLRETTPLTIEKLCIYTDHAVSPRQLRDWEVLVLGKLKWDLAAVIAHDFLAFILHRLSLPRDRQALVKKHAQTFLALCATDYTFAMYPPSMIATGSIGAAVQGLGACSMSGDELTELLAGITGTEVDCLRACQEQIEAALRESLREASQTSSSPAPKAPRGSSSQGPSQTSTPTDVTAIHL
# Outline: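 HTRF kinase assay, CDK4/CCND3 1.5 nM, ATP 1 mM, ULight-4E-BP1 peptide 50 nM, 23 °C, 60 min reaction after 20 min preincubation. Eu-anti-pThr37/46 antibody detection. 11-pt half-log curves from 10 μM → IC50.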
# [4] = molecular target: CDK6/CCND1 (Homo sapiens, UniProt Q00534); experiment: CDK6 homogeneous time-resolved fluorescence (HTRF) kinase assay
# Sequence of CDK6/CCND1 (Q00534 whole entry): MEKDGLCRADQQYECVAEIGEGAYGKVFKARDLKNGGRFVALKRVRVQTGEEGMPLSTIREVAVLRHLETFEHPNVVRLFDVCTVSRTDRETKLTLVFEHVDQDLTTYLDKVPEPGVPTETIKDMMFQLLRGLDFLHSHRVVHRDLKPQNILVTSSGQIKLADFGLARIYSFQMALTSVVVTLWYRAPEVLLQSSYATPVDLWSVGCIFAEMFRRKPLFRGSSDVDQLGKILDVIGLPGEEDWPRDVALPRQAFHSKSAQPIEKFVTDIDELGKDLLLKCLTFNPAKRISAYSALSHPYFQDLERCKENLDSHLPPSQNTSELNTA
# Sequence of CDK6/CCND1 (P24385 whole entry partner): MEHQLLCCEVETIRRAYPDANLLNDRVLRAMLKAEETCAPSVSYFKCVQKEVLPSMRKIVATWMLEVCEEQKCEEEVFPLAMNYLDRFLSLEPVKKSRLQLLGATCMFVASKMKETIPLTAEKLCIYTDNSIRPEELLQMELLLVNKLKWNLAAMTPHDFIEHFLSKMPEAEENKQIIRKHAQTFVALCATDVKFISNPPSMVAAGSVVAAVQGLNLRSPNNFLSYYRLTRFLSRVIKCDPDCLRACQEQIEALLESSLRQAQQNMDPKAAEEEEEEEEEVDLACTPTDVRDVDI
# Outline: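 Recombinant CDK6/CCND1 (1 nM final) was preincubated with compound for 20 min at 23 °C in HEPES buffer with MgCl2, EGTA, DTT and Tween 20. Kinase reaction then ran 60 min at 23 °C with 1 mM ATP and 50 nM ULight-4E-BP1 (Thr37/46) peptide, and was stopped with EDTA.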
# [5] = 25-250 nM, CDK2/CCNE, read-out: CDK2/CCNE IC50, 25-250 nM
# [6] = >250 nM, CDK1/CCNB, read-out: CDK1/CCNB IC50 >250 nM
# [7] = >250 nM, CDK4/CCND, read-out: CDK4/CCND IC50, >250 nM
# [8] = >250 nM, CDK6/CCND, 1 mM ATP, read-out: CDK6/CCND IC50, >250 nM
# [9] = <25 nM, CDK2/CCNE, read-out: CDK2/CCNE IC50, <25 nM
# [10] = 25-250 nM, CDK6/CCND, 1 mM ATP, read-out: CDK6/CCND IC50, 25-250 nM
# [11] = 3 nM CDK2/CCNE1, 1 mM ATP, read-out: CDK2/CCNE IC50 25-250 nM
# [12] = 0.5 nM CDK1/CCNB1, 1 mM ATP, read-out: CDK1/CCNB IC50 >250 nM
# [13] = 3 nM CDK2/CCNE1, 1 mM ATP, read-out: CDK2/CCNE IC50 >250 nM
# [14] = 1.5 nM CDK4/CCND3, 1 mM ATP, read-out: CDK4/CCND IC50 >250 nM
# [15] = 1 nM CDK6/CCND1, 1 mM ATP, read-out: CDK6/CCND IC50 >250 nM
Compound,"IC50 [1, 5] [nM]","IC50 [2, 6] [nM]","IC50 [3, 7] [nM]","IC50 [4, 8] [nM]","IC50 [2, 12] [nM]","IC50 [3, 14] [nM]","IC50 [4, 15] [nM]",further results
"Cc1c(-c2nccc3cnc(Nc4ccc(NS(=O)(=O)c5cc6ccccc6o5)cc4)cc23)ccc2c1cnn2CC(C)(C)O [Example 776, N-(4-((5-(1-(2-hydroxy-2-methylpropyl)-4-methyl-1H-indazol-5-yl)-2,6-naphthyridin-3-yl)amino)phenyl)benzofuran-2-sulfonamide]",25 to 250,> 250,> 250,> 250,,,,
"Cc1c(-c2nccc3cnc(Nc4ccc(S(C)(=O)=O)cc4O)cc23)ccc2c1cnn2CC(C)(C)O [Example 784, 2-((5-(1-(2-hydroxy-2-methylpropyl)-4-methyl-1H-indazol-5-yl)-2,6-naphthyridin-3-yl)amino)-5-(methylsulfonyl)phenol]",,> 250,> 250,,,,,"IC50 [1, 9]: < 25 nM; IC50 [4, 10]: 25 to 250 nM"
"Cc1c(-c2ncc(F)c3cnc(Nc4ccc(S(C)(=O)=O)cc4)cc23)ccc2c1cnn2CC(C)(C)O [Example 788, 1-(5-(4-fluoro-7-((4-(methylsulfonyl)phenyl)amino)-2,6-naphthyridin-1-yl)-4-methyl-1H-indazol-1-yl)-2-methylpropan-2-ol]",25 to 250,> 250,> 250,> 250,,,,
"Cc1c(-c2nccc3cnc(Nc4ccc(S(=O)(=O)Nc5nc(C(F)(F)F)cc(C(F)(F)F)n5)cc4)cc23)ccc2c1cnn2CC(C)(C)O [Example 789, N-(4,6-bis(trifluoromethyl)pyrimidin-2-yl)-4-((5-(1-(2-hydroxy-2-methylpropyl)-4-methyl-1H-indazol-5-yl)-2,6-naphthyridin-3yl)amino)benzenesulfonamide]",25 to 250,> 250,> 250,> 250,,,,
"COc1ccc(C(=O)N2CC[C@@H](Nc3cc4c(-c5ccc6c(cnn6CC(C)(C)O)c5C)nccc4cn3)C2)cc1 [Example 790, (R)-(3-((5-(1-(2-hydroxy-2-methylpropyl)-4-methyl-1H-indazol-5-yl)-2,6-naphthyridin-3-yl)amino)pyrrolidin-1-yl)(4-methoxyphenyl)methanone]",,> 250,> 250,> 250,,,,"IC50 [1, 9]: < 25 nM"
"CS(=O)(=O)c1ccc(Nc2cc3c(C#Cc4cnc(F)c(F)c4)nccc3cn2)cc1 [Example 852, 5-((5,6-difluoropyridin-3-yl)ethynyl)-N-(4-(methylsulfonyl)phenyl)-2,6-naphthyridin-3-amine]",25 to 250,> 250,> 250,> 250,,,,
"N#Cc1ccc(C#Cc2nccc3cnc(Nc4ccc5c(c4)OCCS5(=O)=O)cc23)cc1 [Example 862, 4-((7-((4,4-dioxido-2,3-dihydrobenzo[b][1,4]oxathiin-7-yl)amino)-2,6-naphthyridin-1-yl)ethynyl)benzonitrile]",25 to 250,> 250,> 250,> 250,,,,
"CN1CCN(c2ccc(C#Cc3nccc4cnc(Nc5ccc(S(=O)(=O)O)cc5)cc34)cc2)CC1 [Example 863, 4-((5-((4-(4-methylpiperazin-1-yl)phenyl)ethynyl)-2,6-naphthyridin-3-yl)amino)benzenesulfonic acid]",25 to 250,> 250,> 250,> 250,,,,
"CC#Cc1nccc2cnc(Nc3ccc(S(=O)(=O)Nc4nccc(N5CCN(C)CC5)n4)cc3)cc12 [Example 877, N-(4-(4-methylpiperazin-1-yl)pyrimidin-2-yl)-4-((5-(prop-1-yn-1-yl)-2,6-naphthyridin-3-yl)amino)benzenesulfonamide]",25 to 250,> 250,> 250,> 250,,,,
"Cc1c(-c2nccc3cnc(Nc4cnc(O)c(N5CCN(CCO)CC5)c4)cc23)ccc2c1cnn2CC(C)(C)O [Example 887, 5-((5-(1-(2-hydroxy-2-methylpropyl)-4-methyl-1H-indazol-5-yl)-2,6-naphthyridin-3-yl)amino)-3-(4-(2-hydroxyethyl)piperazin-1-yl)pyridin-2-ol]",,> 250,> 250,> 250,,,,"IC50 [1, 9]: < 25 nM"
"CC(=O)NC1CCN(c2ccc(Nc3cc4c(-c5ccc6c(cnn6CC(C)(C)O)c5C)nccc4cn3)cc2S(C)(=O)=O)C1 (stereo not drawn) [Example 930, N-(1-(4-((5-(1-(2-hydroxy-2-methylpropyl)-4-methyl-1H-indazol-5-yl)-2,6-naphthyridin-3-yl)amino)-2-(methylsulfonyl)phenyl)pyrrolidin-3-yl)acetamide]",,,,,,,,"IC50 [1, 9]: < 25 nM; IC50 ([2]; 25-250 nM, CDK1/CCNB, read-out: CDK1/CCNB IC50, 25-250 nM): 25 to 250 nM; IC50 ([3]; 25-250 nM, CDK4/CCND, read-out: CDK4/CCND IC50, 25-250 nM): 25 to 250 nM; IC50 [4, 10]: 25 to 250 nM"
"CS(=O)(=O)c1ccc(Nc2cc3c(C#Cc4ccc5c(c4)CCNC5)c(C#N)ccc3cn2)cc1 [Example 947, 3-((4-(methylsulfonyl)phenyl)amino)-5-((1,2,3,4-tetrahydroisoquinolin-6-yl)ethynyl)isoquinoline-6-carbonitrile]",,,,,> 250,,,"IC50 [1, 11]: 25 to 250 nM; IC50 ([3]; 1.5 nM CDK4/CCND3, 1 mM ATP, read-out: CDK4/CCND IC50 25-250 nM): 25 to 250 nM; IC50 ([4]; 1 nM CDK6/CCND1, 1 mM ATP, read-out: CDK6/CCND IC50 25-250 nM): 25 to 250 nM"
"CS(=O)(=O)c1ccc(Nc2ncc3ccc(C#N)c(C#Cc4ccc5c(c4)CCNC5)c3n2)cc1 [Example 948, 2-((4-(methylsulfonyl)phenyl)amino)-8-((1,2,3,4-tetrahydroisoquinolin-6-yl)ethynyl)quinazoline-7-carbonitrile, TFA Salt]",,,,,> 250,> 250,> 250,"IC50 [1, 13]: > 250 nM"
"CS(=O)(=O)c1ccc(Nc2ncc3ccnc(C#Cc4ccc(C#N)cc4)c3n2)cc1 [Example 949, 4-((2-((4-(methylsulfonyl)phenyl)amino)pyrido[3,4-d]pyrimidin-8-yl)ethynyl)benzonitrile]",,,,,> 250,> 250,> 250,"IC50 [1, 13]: > 250 nM"
"CS(=O)(=O)c1ccc(Nc2cc3c(C4=CCCCC4)ncnc3cn2)cc1 [Example 950, 4-(cyclohex-1-en-1-yl)-N-(4-(methylsulfonyl)phenyl)pyrido[3,4-d]pyrimidin-6-amine]",,,,,> 250,> 250,> 250,"IC50 [1, 11]: 25 to 250 nM"
"CS(=O)(=O)c1ccc(Nc2cc3c(N4CCC(C#N)CC4)c(C#N)cnc3cn2)cc1 [Example 953, 4-(4-cyanopiperidin-1-yl)-6-((4-(methylsulfonyl)phenyl)amino)-1,7-naphthyridine-3-carbonitrile]",,,,,> 250,> 250,> 250,"IC50 [1, 13]: > 250 nM"
"Cc1cc(N2CCC(C#N)CC2)c2nc(Nc3ccc(S(C)(=O)=O)cc3)ncc2c1 [Example 954, 1-(6-methyl-2-((4-(methylsulfonyl)phenyl)amino)quinazolin-8-yl)piperidine-4-carbonitrile]",,,,,> 250,> 250,> 250,"IC50 [1, 13]: > 250 nM"
"CS(=O)(=O)c1ccc(Nc2ncc3ccc(C#N)c(C#Cc4ccc(C#N)cc4)c3n2)cc1 [Example 955, 8-((4-cyanophenyl)ethynyl)-2-((4-(methylsulfonyl)phenyl)amino) quinazoline-7-carbonitrile]",,,,,> 250,> 250,> 250,"IC50 [1, 13]: > 250 nM"
